{"source": "patent US20190167711A1", "about": "“METHODS FOR DIAGNOSIS AND TREATMENT OF ACUTE LYMPHOBLASTIC LEUKEMIA” (MOR RESEARCH APPLICATIONS LTD., priority 2014, published 2019)", "key": {"[1]": {"tested_on": "NAD^+ formation in Nalm-6 cell line", "test": "NAD^+/NADH assay in Nalm-6 cells treated with FK866", "assay_type": "cell-based", "method": "(§1) The NAD^+/NADH ratio was measured in whole-cell extracts of NALM-6 cells using the Biovision NAD^+/NADH Quantification Colorimetric™ Kit (BioVision, San Francisco, Calif., USA) (also referred to herein as “NAD assay”) according to the manufacturer's protocol (see, for example, https://www.biovision.com/documentation/datasheets/K337.pdf). The NAD Cycling Enzyme Mix in the kit specifically recognizes NADH/NAD^+ in an enzyme cycling reaction. After 4 hrs, the plate was read at optical density (OD) 450 nm. The readings were normalized to the cell number and the NAD^+/NADH ratio was calculated as: (total NAD^+−NADH)/NADH.\nNalm-6 cells were treated for 1, 3, and 6 hours with 1 nM FK866 (Sigma) and NAD^+ formation was measured using NAD assay as described in Materials and Methods.\nThe sensitivity of NALM-6 cells to the NAMPT inhibitor FK866 was measured in cells following transfection with miR-451 mimic (SEQ ID NO: 2), miR-451 inhibitor (miArrest™ miR-451 expression clone; GeneCopoeia™), or scrambled miR. Sensitivity was assessed by measuring the levels of NAD^+. […] Thus, miR-451 expression can distinguish between patients that could benefit from treatment with NAMPT inhibitors such as FK866."}, "Nalm-6 cells [2]": {"tested_on": "Nalm-6 cells", "test": "Annexin V-FITC apoptosis assay in Nalm-6 cells", "assay_type": "cell-based", "conditions": "1 nM for 48 hours, Nalm-6 cells, FACS", "from_the_text": "Cells were stained with annexin V-fluorescein-5-isothiocyanate (FITC) conjugated antibody and propidium iodide (PI) using the Annexin V-FITC Apoptosis Detection Kit (ab14085, Abcam® Incorporated, Cambridge, Mass., USA) according to manufacturer's instructions (see, for example, https://www.abcam.com/ps/products/14/ab14085/documents/ab14085%20Annexin %20V%20FITC%20Apoptosis%20Detection%20Kit%20v4%20(website).pdf), and read on the flow cytometer. Annexin V Apoptosis Detection Kit is based on the observation that soon after initiating apoptosis, cells translocate the membrane phosphatidylserine (PS) from the inner face of the plasma membrane to the cell surface. Once on the cell surface, PS can be easily detected by staining with a fluorescent conjugate (e.g., FITC) of Annexin V, a protein that has a high affinity for PS. The one-step staining procedure takes only 10 minutes. When performing both Annexin V-FITC and PI staining, it is possible to differentiate apoptosis vs necrosis.\n(§2) To measure the effect of NAD^+ depletion following FK866 treatment of Nalm-6 cells, apoptosis and viability were measured as described in Materials and Methods. Nalm-6 cells were treated for 48 hours with 1 nM FK866, and then apoptosis was measured using FACS."}, "Nalm-6 cells [3]": {"tested_on": "Nalm-6 cells", "test": "XTT cell viability assay in Nalm-6 cells", "assay_type": "cell-based", "conditions": "1 nM for 48 hours, Nalm-6 cells, XTT", "method": "Cell viability assay was performed using the Cell Proliferation Kit comprising the second-generation tetrazolium dye, XTT. Viable cells with active metabolism convert XTT into an orange colored reduction product, whereas dead cells lose the ability to reduce XTT, thus, color formation serves as a useful and convenient marker of only the viable cells.\nThe XTT kit was applied to NALM6 transfected cells according to the manufacturer's protocol (Biological Industries, Kibbutz Beit Haemek, Israel). Cells were incubated for 3 hours with the XTT reagent and quantity of reduced XTT (directly proportional to the number of viable cells) was assessed by recording changes in absorbance as measured on a microplate reader at 450-500 nm optical density (OD).\nas §2"}, "ALL NALM-6 cells": {"tested_on": "ALL NALM-6 cells", "test": "FK866 in ALL xenograft mouse model", "assay_type": "in vivo, NSG™ mice", "method": "Ten million ALL NALM-6 cells in 100 μl saline were injected subcutaneously, above the femur, to 6-8 weeks-old NSG™ mice (NSG™ mouse model variants are the most highly immunodeficient mice and therefore were chosen as models for cancer xenograft modelling). Tumors were clinically evident 15-28 days following injection in more than 85% of the mice (n=175). Mice were divided into groups receiving either FK866 or vehicle treatment. Mice in the treatment group received FK866 in 0.9% saline intraperitoneally at a dose of 15 mg/Kg daily for 5 days. Vehicle in the control group was injected intraperitoneally once a day for 5 days repeated weekly. The volume of tumors was measured daily until mice were sacrificed. Tumor volume was monitored using vernier caliper measurements and calculated using the formula π(length)(width)^2/6. Each experiment was ended when tumor size reached 12×12 mm^3. All animal experiments were performed under an approved animal study protocol.\nFollowing the in vitro studies described in Example 4 herein, the sensitivity of ALL tumor growth to a NAMPT inhibitor was tested in-vivo in an ALL xenograft mouse model. The NAMPT inhibitor tested was the known small molecule FK866. The effect of FK866 was tested in the ALL xenograft mouse model in 4 independent experiments each performed on a group of 82 NSG™ mice as follows: 41 mice were treated with FK866 (15 mg/kg) once a day for 5 days repeated weekly, and 41 mice served as controls (i.e., were not treated with FK866 and received saline instead).\nMice were treated from the day tumors were clinically evident in all mice (day 25), and tumors volume was measured daily."}, "NALM-6/antagomiR-451": {"tested_on": "NALM-6/antagomiR-451", "test": "FK866 in xenograft of NALM-6/antagomiR-451 stable line", "assay_type": "in vivo, NSG™ mice", "method": "(§3) miR-451 precursor and antagomiR-451 expression clones were obtained from GeneCopoeia™ (GeneCopoeia, Rockville, Md., USA). Stable cell lines were prepared by the Tel Aviv University's Vector Core Facility by transduction of ALL cell line (NALM-6) with lentiviral particles co-encoding miR-451 precursor or antagomiR-451, the ORF for EGFP/mCherry and puromycin-resistance, under the control of individual CMV promoters. The ORFs and the miR-451 precursor/antagomiR-451 oligonucleotide sequences were incorporated into the pLL3.7 3rd generation lentiviral vector. […]\n(§4) Ten million ALL NALM-6 cells in 100 μl saline were injected subcutaneously, above the femur, to 6-8 weeks-old NSG™ mice (NSG™ mouse model variants are the most highly immunodeficient mice and therefore were chosen as models for cancer xenograft modelling). […] The volume of tumors was measured daily until mice were sacrificed. Tumor volume was monitored using vernier caliper measurements and calculated using the formula π(length)(width)^2/6. […]\n(§5) In order to assess a possible association or correlation between miR-451 expression levels and sensitivity to in-vivo treatment of ALL with a NAMPT inhibitor, the effect of the NAMPT inhibitor FK866 was assessed in the presence of elevated levels or lowered levels of miR-451 in ALL xenograft mouse model. […] Tumors volume was measured daily."}, "NALM-6/miR-451 mimic": {"tested_on": "NALM-6/miR-451 mimic", "test": "FK866 in xenograft of NALM-6/miR-451 mimic stable line", "assay_type": "in vivo, NSG™ mice", "method": "as §3, §4, §5"}, "[4]": {"conditions": "Phase I, patients with advanced cancers; cited from earlier work"}, "NAMPT": {"tested_on": "NAMPT", "test": "NAMPT expression after TPA treatment", "assay_type": "cell-based", "conditions": "50 ng/ml for 24 hours, human peripheral blood cells, FACS", "method": "Studies by several investigators have shown that 12-0-tetradecanoylphorbol-13-acetate (TPA) (Sigma) is an extraordinarily potent tumor promoter and stimulates protein kinase C (PKC). Since NAMPT is over-expressed in several tumors, it was believed that it might be possible to achieve NAMPT stimulation by TPA treatment. To test this hypothesis, human peripheral blood cells were treated with 50 ng/ml TPA for 24 hours, and NAMPT expression was measured by FACS using a specific NAMPT antibody."}, "NAD^+ levels": {"tested_on": "NAD^+ levels", "test": "NAD assay in TPA stimulated cells", "assay_type": "cell-based, human", "method": "as §1\nNAMPT is the rate-limiting enzyme in the NAD^+ biosynthetic pathway. Thus, NAD^+ levels in the stimulated cells were measured using a standard NAD assay (BioVision NADH/NAD^+ Quantification Colorimetric™ Kit)."}, "phospho-STAT protein": {"tested_on": "phospho-STAT protein", "test": "Phospho-STAT levels by FACS after miR-1290 mimic transfection", "assay_type": "cell-based", "conditions": "NALM-6 cell line transfected", "method": "Phosphorylated STAT (phospho-STAT, activated by JAK) levels were measured by FACS analysis following transfection of miR-1290 mimic (overexpression) into NALM-6 cell line. An increase of 50% in the levels of phospho-STAT protein was evident in the cells expressing high levels of miR-1290 (FIG. 11)."}}}
{"compound": "O=C(/C=C/c1cccnc1)NCCCCC1CCN(C(=O)c2ccccc2)CC1", "note": "[FK866]", "values": [{"measurement": "NAD^+ detection following treatment", "setting": "[1]; 1 nM for 1, 3 and 6 hours, Nalm-6 cells", "result": "gradual decrease in NAD^+ detection"}, {"measurement": "change in NAD^+ production after FK866 treatment compared to control", "setting": "[1]; Nalm-6/miR-451 inhibitor cells", "result": "more than 5 fold"}, {"measurement": "change in NAD^+ production after FK866 treatment compared to control", "setting": "[1]; Nalm-6/miR-451 mimic cells", "result": "less change in NAD^+ production"}, {"measurement": "apoptosis level", "setting": "Nalm-6 cells [2]", "result": "significantly increased apoptosis level"}, {"measurement": "cell viability", "setting": "Nalm-6 cells [3]", "result": "significant decrease in cell viability"}, {"measurement": "mean tumor volume at the end of experiment", "setting": "ALL NALM-6 cells; 15 mg/kg daily, day 32", "result": "300.36±63.67", "unit": "mm^3"}, {"measurement": "tumor growth increase", "setting": "ALL NALM-6 cells; 15 mg/kg daily, day 32 vs day 25", "result": "less than 150%"}, {"measurement": "volume change treated vs non-treated group", "setting": "ALL NALM-6 cells; within 4 days of treatment (day 29)", "result": "tumor growth inhibition"}, {"measurement": "tumor growth/volume change treated vs un-treated", "setting": "NALM-6/antagomiR-451; NALM-6/antagomiR-451 mice", "result": "significant difference in tumor growth/volume change"}, {"measurement": "mean tumor volume at the end of experiments", "setting": "NALM-6/antagomiR-451; antagomiR-451 group, FK866 15 mg/kg", "result": "117±81", "unit": "mm^3"}, {"measurement": "tumor growth/volume change treated vs untreated", "setting": "NALM-6/miR-451 mimic; NALM-6/miR-451 mimic mice", "result": "Only a moderate difference in tumor growth/volume change"}, {"measurement": "mean tumor volume at the end of experiments", "setting": "NALM-6/miR-451 mimic; miR-451 mimic group, FK866 15 mg/kg", "result": "544±64", "unit": "mm^3"}, {"measurement": "tolerability and safety", "setting": "[4]", "result": "well tolerated and safe"}]}
{"compound": "CCCCCCCCCCCCCC(=O)O[C@@H]1[C@@H](C)[C@@]2(O)[C@@H](C=C(CO)C[C@]3(O)C(=O)C(C)=C[C@@H]23)[C@@H]2C(C)(C)[C@]12OC(C)=O", "note": "[TPA, 12-O-tetradecanoylphorbol-13-acetate]", "values": [{"measurement": "increase in NAMPT expression levels", "setting": "NAMPT", "result": "more than 4 folds"}, {"measurement": "cellular NAD^+ levels, fold higher", "setting": "NAD^+ levels", "result": 2, "unit": "fold"}]}
{"compound": "miR-1290 mimic: synthetic miR-1290 mimic, SEQ ID NO:4, for over-expression of miR-1290 (UGGAUUUUUGGAUCACCUGAUCCAAAAAU; listed as RNA, chemistry not given here)", "values": [{"measurement": "increase in the levels of phospho-STAT protein", "setting": "phospho-STAT protein", "result": 50, "unit": "%"}]}
